For experiment [1], the target named is T1, zfERβ2 (Danio rerio, UniProt Q7ZU32). The conditions noted are these: HELN-zfERβ2.
Experiment [2] relates to 5×ERE:GFP reporter. The conditions noted are these: 5×ERE:GFP zebrafish larvae; ref Gorelik et al., 2014; cited from earlier work.
Experiment [3] addresses hERβ (Homo sapiens, UniProt Q92731). Conditions: ref Escande et al., 2006; cited from earlier work.
Experiment [4] deals with T2, zfERβ1 (Danio rerio, UniProt Q5PR29). The conditions noted are these: HELN-zfERβ1.
Experiment [5] concerns the target T3, zfERα (Danio rerio, UniProt P57717).
T3 sequence (P57717 1-569): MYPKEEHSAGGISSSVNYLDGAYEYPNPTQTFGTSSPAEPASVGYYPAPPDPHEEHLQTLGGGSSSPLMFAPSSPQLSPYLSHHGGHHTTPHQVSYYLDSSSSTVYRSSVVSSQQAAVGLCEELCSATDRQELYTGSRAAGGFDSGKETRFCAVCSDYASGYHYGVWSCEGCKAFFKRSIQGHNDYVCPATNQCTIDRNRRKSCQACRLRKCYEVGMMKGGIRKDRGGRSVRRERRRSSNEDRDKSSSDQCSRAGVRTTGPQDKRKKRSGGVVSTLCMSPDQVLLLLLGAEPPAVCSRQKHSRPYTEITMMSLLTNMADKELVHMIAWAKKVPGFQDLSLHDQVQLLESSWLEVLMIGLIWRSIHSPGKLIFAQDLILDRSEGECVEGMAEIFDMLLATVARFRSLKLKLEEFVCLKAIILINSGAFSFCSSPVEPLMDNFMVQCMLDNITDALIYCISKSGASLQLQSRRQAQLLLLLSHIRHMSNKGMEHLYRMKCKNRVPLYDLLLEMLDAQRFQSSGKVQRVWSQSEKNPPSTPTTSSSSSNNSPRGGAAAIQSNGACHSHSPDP
The experiment is described as follows: HELN-zfERα luciferase transactivation assay. Conditions: HELN-zfERα.

For experiment [6], the target named is T3, zfERα. The experiment is described as follows: HELN-zfERα transcriptional inhibition. In kind it is cell-based, zebrafish.
For experiment [7], the target named is T1, zfERβ2. The experiment is described as follows: HELN-zfERβ2 transcriptional inhibition. In kind it is cell-based, zebrafish.
Experiment [8] addresses T2, zfERβ1. In kind it is cell-based, zebrafish. Conditions: HELN-zfERβ1.

The text below walks through data of publication PMC8740820 (Toxicology and applied pharmacology, 2014).

Molecules are shown by their SMILES. Entries after “also recorded” stand apart in the source; their conditions may differ.

hERβ, sequence (Q92731 whole entry): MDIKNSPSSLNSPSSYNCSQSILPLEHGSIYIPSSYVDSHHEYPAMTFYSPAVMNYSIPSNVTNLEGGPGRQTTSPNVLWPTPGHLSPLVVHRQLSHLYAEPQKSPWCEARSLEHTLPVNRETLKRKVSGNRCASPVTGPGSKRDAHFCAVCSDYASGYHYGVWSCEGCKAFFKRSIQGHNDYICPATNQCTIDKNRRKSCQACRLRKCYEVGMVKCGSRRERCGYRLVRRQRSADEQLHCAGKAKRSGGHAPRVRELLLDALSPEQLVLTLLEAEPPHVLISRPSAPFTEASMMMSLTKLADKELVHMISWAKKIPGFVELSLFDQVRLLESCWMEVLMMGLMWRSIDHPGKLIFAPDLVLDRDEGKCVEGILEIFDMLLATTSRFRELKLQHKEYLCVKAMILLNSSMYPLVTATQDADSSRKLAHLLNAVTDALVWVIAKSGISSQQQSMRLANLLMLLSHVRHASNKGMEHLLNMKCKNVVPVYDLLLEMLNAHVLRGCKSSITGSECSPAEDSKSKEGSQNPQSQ

With `CCCc1c(-c2ccc(O)cc2)nn(-c2ccc(O)cc2)c1-c1ccc(O)cc1` [PPT, 4,4′,4″-(4-Propyl-[^1H]-pyrazole-1,3,5-triyl)trisphenol], the “agonistic activity on zfERβ2 (in words)” value in experiment [1] is “partially activated; also recorded: slightly activated”. Moreover, the “tissue of GFP expression” value in experiment [2] is on record as “GFP labeling of only the larval liver”. Moreover, in experiment [3], the “agonistic activity on hERβ (in words)” value is “unable to activate hERβ”. The “agonistic activity on zfERβ1 (in words)” value in experiment [4] is “partially activated; also recorded: slightly activated”. Moreover, the “agonistic activity on zfERα (in words)” value in experiment [5] is on record as “did not activate zfERα at all; also recorded: devoid of agonistic activity”. For the same compound, in experiment [6], the “antagonistic activity on zfERα (in words)” value is on record as “full antagonistic activity”. Besides, the “antagonistic activity on zfERβ2 (in words)” value in experiment [7] is on record as “partially antagonize”. Besides, in experiment [8], the “antagonistic activity on zfERβ1 (in words)” value is “partially antagonize”.
